PubChem BioAssay AID2060882 (Molecular Pharmacology Branch, DTP, NCI, 2025)

Tested on: 898857-211-R-J1-PDC complex spheroids, growth % test/control
Assay: Anticancer human tumor 898857-211-R-J1-PDC patient-derived melanoma cell line growth inhibition [RAS]
Settings: for IC50: curve of first compound; for viability, T/C: stronger effect = lower value
Outline: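 Multi-cell-type spheroids: tumor cells plus HUVEC endothelial cells and mesenchymal stem cells. RAS-pathway inhibitors were combined with targeted agents, each dosed in half-log steps down from clinical Cmax, or from 10 microM when Cmax was unknown.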
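Also: spheroids exposed to compound for seven days before readout.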
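For viability, T/C in this document: 100% = DMSO vehicle control wells.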

## CC(=O)OC12COC1CC(O)C1(C)C(=O)C(O)C3=C(C)C(OC(=O)C(O)C(NC(=O)OC(C)(C)C)c4ccccc4)CC(O)(C(OC(=O)c4ccccc4)C21)C3(C)C (centres undefined) + CCn1c(-c2cccnc2C(C)OC)c2c3cc(ccc31)N1CCOC(CC(NC(=O)C(C(C)C)N(C)C(=O)C3(F)CCN(C(=O)C#CC(C)(C)N(C)C)CC3)C(=O)N3CCCC(N3)C(=O)OCC(C)(C)C2)C1
Second compound 0.000949 µM
  IC50: < 31.6 nM
Second compound 0.003 µM
  IC50: < 31.6 nM
Second compound 0.00949 µM
  IC50: < 31.6 nM
Second compound 0.03 µM
  IC50: < 31.6 nM
Second compound 0.0949 µM
  IC50: < 31.6 nM
Second compound 0.3 µM
  IC50: < 31.6 nM
Second compound 0.000949 µM, first compound 0.0316 µM
  viability, T/C: 10.8%
Second compound 0.000949 µM, first compound 0.1 µM
  viability, T/C: 9.24%
Second compound 0.000949 µM, first compound 0.316 µM
  viability, T/C: 8.35%
Second compound 0.000949 µM, first compound 1 µM
  viability, T/C: 12.8%
Second compound 0.000949 µM, first compound 3.16 µM
  viability, T/C: 18.6%
Second compound 0.000949 µM, first compound 10 µM
  viability, T/C: 20.4%
Second compound 0.003 µM, first compound 0.0316 µM
  viability, T/C: 10.1%
Second compound 0.003 µM, first compound 0.1 µM
  viability, T/C: 11.5%
Second compound 0.003 µM, first compound 0.316 µM
  viability, T/C: 11.4%
Second compound 0.003 µM, first compound 1 µM
  viability, T/C: 12.4%
Second compound 0.003 µM, first compound 3.16 µM
  viability, T/C: 14%
Second compound 0.003 µM, first compound 10 µM
  viability, T/C: 20.9%
Second compound 0.00949 µM, first compound 0.0316 µM
  viability, T/C: 7.95%
Second compound 0.00949 µM, first compound 0.1 µM
  viability, T/C: 8.82%
Second compound 0.00949 µM, first compound 0.316 µM
  viability, T/C: 13.5%
Second compound 0.00949 µM, first compound 1 µM
  viability, T/C: 11.8%
Second compound 0.00949 µM, first compound 3.16 µM
  viability, T/C: 12.9%
Second compound 0.00949 µM, first compound 10 µM
  viability, T/C: 20.2%
Second compound 0.03 µM, first compound 0.0316 µM
  viability, T/C: 8.31%
Second compound 0.03 µM, first compound 0.1 µM
  viability, T/C: 10.6%
Second compound 0.03 µM, first compound 0.316 µM
  viability, T/C: 9.59%
Second compound 0.03 µM, first compound 1 µM
  viability, T/C: 13.5%
Second compound 0.03 µM, first compound 3.16 µM
  viability, T/C: 16.6%
Second compound 0.03 µM, first compound 10 µM
  viability, T/C: 15.3%
Second compound 0.0949 µM, first compound 0.0316 µM
  viability, T/C: 8.5%
Second compound 0.0949 µM, first compound 0.1 µM
  viability, T/C: 10.2%
Second compound 0.0949 µM, first compound 0.316 µM
  viability, T/C: 10.7%
Second compound 0.0949 µM, first compound 1 µM
  viability, T/C: 11.4%
Second compound 0.0949 µM, first compound 3.16 µM
  viability, T/C: 15.7%
Second compound 0.0949 µM, first compound 10 µM
  viability, T/C: 14.4%
Second compound 0.3 µM, first compound 0.0316 µM
  viability, T/C: 8.04%
Second compound 0.3 µM, first compound 0.1 µM
  viability, T/C: 7.55%
Second compound 0.3 µM, first compound 0.316 µM
  viability, T/C: 8.89%
Second compound 0.3 µM, first compound 1 µM
  viability, T/C: 9.35%
Second compound 0.3 µM, first compound 3.16 µM
  viability, T/C: 11.3%
Second compound 0.3 µM, first compound 10 µM
  viability, T/C: 7.88%

## CCc1c2c(nc3ccc(O)cc13)-c1cc3c(c(=O)n1C2)COC(=O)[C@]3(O)CC + CCn1c(-c2cccnc2C(C)OC)c2c3cc(ccc31)N1CCOC(CC(NC(=O)C(C(C)C)N(C)C(=O)C3(F)CCN(C(=O)C#CC(C)(C)N(C)C)CC3)C(=O)N3CCCC(N3)C(=O)OCC(C)(C)C2)C1
Second compound 0.000949 µM
  IC50: 5.13 nM
Second compound 0.003 µM
  IC50: 4.91 nM
Second compound 0.00949 µM
  IC50: 4.21 nM
Second compound 0.03 µM
  IC50: 3.8 nM
Second compound 0.0949 µM
  IC50: 3.54 nM
Second compound 0.3 µM
  IC50: 2.75 nM
Second compound 0.000949 µM, first compound 0.000949 µM
  viability, T/C: 103%
Second compound 0.000949 µM, first compound 0.003 µM
  viability, T/C: 66.7%
Second compound 0.000949 µM, first compound 0.00949 µM
  viability, T/C: 31.6%
Second compound 0.000949 µM, first compound 0.03 µM
  viability, T/C: 10.2%
Second compound 0.000949 µM, first compound 0.0949 µM
  viability, T/C: 7.77%
Second compound 0.000949 µM, first compound 0.3 µM
  viability, T/C: 6.78%
Second compound 0.003 µM, first compound 0.000949 µM
  viability, T/C: 92.2%
Second compound 0.003 µM, first compound 0.003 µM
  viability, T/C: 64.1%
Second compound 0.003 µM, first compound 0.00949 µM
  viability, T/C: 31.5%
Second compound 0.003 µM, first compound 0.03 µM
  viability, T/C: 11.2%
Second compound 0.003 µM, first compound 0.0949 µM
  viability, T/C: 6.86%
Second compound 0.003 µM, first compound 0.3 µM
  viability, T/C: 5.62%
Second compound 0.00949 µM, first compound 0.000949 µM
  viability, T/C: 91.5%
Second compound 0.00949 µM, first compound 0.003 µM
  viability, T/C: 58.2%
Second compound 0.00949 µM, first compound 0.00949 µM
  viability, T/C: 30.2%
Second compound 0.00949 µM, first compound 0.03 µM
  viability, T/C: 11.7%
Second compound 0.00949 µM, first compound 0.0949 µM
  viability, T/C: 6.64%
Second compound 0.00949 µM, first compound 0.3 µM
  viability, T/C: 7.62%
Second compound 0.03 µM, first compound 0.000949 µM
  viability, T/C: 88.5%
Second compound 0.03 µM, first compound 0.003 µM
  viability, T/C: 55.3%
Second compound 0.03 µM, first compound 0.00949 µM
  viability, T/C: 28.3%
Second compound 0.03 µM, first compound 0.03 µM
  viability, T/C: 9.56%
Second compound 0.03 µM, first compound 0.0949 µM
  viability, T/C: 7.6%
Second compound 0.03 µM, first compound 0.3 µM
  viability, T/C: 5.55%
Second compound 0.0949 µM, first compound 0.000949 µM
  viability, T/C: 77.6%
Second compound 0.0949 µM, first compound 0.003 µM
  viability, T/C: 52.6%
Second compound 0.0949 µM, first compound 0.00949 µM
  viability, T/C: 29.5%
Second compound 0.0949 µM, first compound 0.03 µM
  viability, T/C: 8.59%
Second compound 0.0949 µM, first compound 0.0949 µM
  viability, T/C: 6.88%
Second compound 0.0949 µM, first compound 0.3 µM
  viability, T/C: 5.75%
Second compound 0.3 µM, first compound 0.000949 µM
  viability, T/C: 65.3%
Second compound 0.3 µM, first compound 0.003 µM
  viability, T/C: 48.6%
Second compound 0.3 µM, first compound 0.00949 µM
  viability, T/C: 20.1%
Second compound 0.3 µM, first compound 0.03 µM
  viability, T/C: 7.15%
Second compound 0.3 µM, first compound 0.0949 µM
  viability, T/C: 8.16%
Second compound 0.3 µM, first compound 0.3 µM
  viability, T/C: 5.2%
